Test results reported in patent US9695155B2, “Herbicidal substituted pyrimidinyloxy benzene compounds” (E. I. DU PONT DE NEMOURS AND COMPANY, priority 2013, dated 2017).

How the values were obtained:
kochia [1] = test: Test A postemergence; type: in vivo, Kochia scoparia; conditions: for Kochia plant response rating: 125 g ai/ha
Procedure, shortened: (§1)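 Scoring: eye-based comparison with untreated controls, 0 for no effect through 100 for complete control, at about day 10. Treatments: directed soil spray preemergence; foliar spray postemergence on 2–10 cm plants at the one- to two-leaf stage. Medium: loam soil with sand.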

sedge, umbrella = test: Test B flooded paddy test; type: in vivo, Cyperus difformis; conditions: Flood, 250 g ai/ha; 0 to 100 scale where 0 is no effect and 100 is complete control
Procedure, shortened: (§2)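 Evaluation is visual, against untreated controls, 13 to 15 days after treatment. Before treatment, plants reached the 2-leaf stage; pots were then flooded 3 cm deep, compound was added to the water, and that level was maintained. Ratings run 0 to 100, with 100 meaning complete control.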

galium = test: Test A postemergence; type: in vivo, Galium aparine; conditions: for Galium plant response rating: 125 g ai/ha
Procedure, shortened: as §1

ragweed [2] = test: Test A postemergence; type: in vivo, Ambrosia elatior; conditions: for Ragweed plant response rating: 125 g ai/ha
Procedure, shortened: as §1

kochia [3] = test: Test A preemergence; type: in vivo, Kochia scoparia; conditions: 0 to 100 scale where 0 is no effect and 100 is complete control
Procedure, shortened: as §1

blackgrass = test: Test A postemergence; type: in vivo, Alopecurus myosuroides; conditions: for Blackgrass plant response rating: 125 g ai/ha
Procedure, shortened: as §1

giant foxtail [4] = test: Test A preemergence; type: in vivo, Setaria faberii; conditions: 0 to 100 scale where 0 is no effect and 100 is complete control
Procedure, shortened: as §1

barnyardgrass [5] = test: Test A postemergence; type: in vivo, Echinochloa crus-galli; conditions: for Barnyardgrass plant response rating: 125 g ai/ha
Procedure, shortened: as §1

Italian ryegrass [6] = test: Test A preemergence; type: in vivo, Lolium multiflorum; conditions: 0 to 100 scale where 0 is no effect and 100 is complete control
Procedure, shortened: as §1

barnyardgrass [7] = test: Test B flooded paddy test; type: in vivo, Echinochloa crus-galli; conditions: Flood, 250 g ai/ha; 0 to 100 scale where 0 is no effect and 100 is complete control
Procedure, shortened: as §2

pigweed [8] = test: Test A preemergence; type: in vivo, Amaranthus retroflexus; conditions: 0 to 100 scale where 0 is no effect and 100 is complete control
Procedure, shortened: as §1

rice = test: Test B flooded paddy test; type: in vivo, Oryza sativa; conditions: Flood, 250 g ai/ha; 0 to 100 scale where 0 is no effect and 100 is complete control
Procedure, shortened: as §2

barnyardgrass [9] = test: Test A preemergence; type: in vivo, Echinochloa crus-galli; conditions: 0 to 100 scale where 0 is no effect and 100 is complete control
Procedure, shortened: as §1

pigweed [10] = test: Test A postemergence; type: in vivo, Amaranthus retroflexus; conditions: for Pigweed plant response rating: 125 g ai/ha
Procedure, shortened: as §1

wheat = test: Test A postemergence; type: in vivo, Triticum aestivum; conditions: for Wheat plant response rating: 125 g ai/ha
Procedure, shortened: as §1

giant foxtail [11] = test: Test A postemergence; type: in vivo, Setaria faberii; conditions: for Foxtail, Giant plant response rating: 125 g ai/ha
Procedure, shortened: as §1

ragweed [12] = test: Test A preemergence; type: in vivo, Ambrosia elatior; conditions: 0 to 100 scale where 0 is no effect and 100 is complete control
Procedure, shortened: as §1

Heteranthera limosa = test: Test B flooded paddy test; type: in vivo; conditions: Flood, 250 g ai/ha; 0 to 100 scale where 0 is no effect and 100 is complete control
Procedure, shortened: as §2

corn = test: Test A postemergence; type: in vivo, Zea mays; conditions: for Corn plant response rating: 125 g ai/ha
Procedure, shortened: as §1

Italian ryegrass [13] = test: Test A postemergence; type: in vivo, Lolium multiflorum; conditions: for Ryegrass, Italian plant response rating: 125 g ai/ha
Procedure, shortened: as §1

[14] = 31 g ai/ha, 0 to 100 scale, 0 no effect, 100 complete control
[15] = 0 to 100 scale where 0 is no effect and 100 is complete control
[16] = 31 g ai/ha, visual, approximately 10 days
[17] = 500 g ai/ha, 0 to 100 scale where 0 is no effect and 100 is complete control

SMILES | Kochia plant response rating (kochia [1]; [15]) | Plant response rating, Sedge, Umbrella (sedge, umbrella) | Galium plant response rating (galium; [15]) | Ragweed plant response rating (ragweed [2]; [15]) | Plant response rating, Kochia (kochia [3]; 125 g ai/ha) | Blackgrass plant response rating (blackgrass; [15]) | Plant response rating, Foxtail, Giant (giant foxtail [4]; 125 g ai/ha) | Barnyardgrass plant response rating (barnyardgrass [5]; [15]) | Plant response rating, Ryegrass, Italian (Italian ryegrass [6]; 125 g ai/ha) | Plant response rating, Barnyardgrass (barnyardgrass [7]) | Plant response rating, Pigweed (pigweed [8]; 125 g ai/ha) | Plant response rating, Rice (rice) | Plant response rating, Barnyardgrass (barnyardgrass [9]; 125 g ai/ha) | Pigweed plant response rating (pigweed [10]; [15]) | Wheat plant response rating (wheat; [15]) | Foxtail, Giant plant response rating (giant foxtail [11]; [15]) | Plant response rating, Ragweed (ragweed [12]; 125 g ai/ha) | Plant response rating, Ducksalad (Heteranthera limosa) | Corn plant response rating (corn; [15]) | Ryegrass, Italian plant response rating (Italian ryegrass [13]; [15]) | other results
N#Cc1cnn(-c2c(Cl)cccc2Oc2ncc(Cl)cn2)c1 [Compound 144] | 100 | 80 | 90 | 80 | 100 | 90 | 100 | 90 | 20 | 0 | 100 | 0 | 90 | 100 | 20 | 100 | 100 | 95 | 40 | 50 | Plant response rating, Kochia (kochia [1]; [14]): 50; Plant response rating, Galium (galium; [14]): 80; Plant response rating, Ragweed (ragweed [2]; [14]): 20; Plant response rating, Kochia (kochia [3]; [16]): 70; Plant response rating, Blackgrass (blackgrass; [14]): 20; Plant response rating, Foxtail, Giant (giant foxtail [4]; [16]): 70; Plant response rating, Barnyardgrass (barnyardgrass [5]; [14]): 20; Plant response rating, Ryegrass, Italian (Italian ryegrass [6]; [16]): 20; Plant response rating, Pigweed (pigweed [8]; [16]): 90; Plant response rating, Barnyardgrass (barnyardgrass [9]; [16]): 20; Plant response rating, Pigweed (pigweed [10]; [14]): 80; Plant response rating, Wheat (wheat; [14]): 20; Plant response rating, Foxtail, Giant (giant foxtail [11]; [14]): 20; Plant response rating, Ragweed (ragweed [12]; [16]): 0; Plant response rating, Corn (corn; [14]): 20; Plant response rating, Ryegrass, Italian (Italian ryegrass [13]; [14]): 0
CC(F)c1cccc(Oc2ncc(Cl)cn2)c1-n1cc(Br)cn1 (stereo not drawn) [Compound 146] | 70 | 40 | 50 | 10 | 40 | 20 | 70 | 10 | 0 | 20 | 60 | 0 | 20 | 100 | 0 | 20 | 0 | 40 | 10 | 0 | Plant response rating, Kochia (kochia [1]; [17]): 100; Plant response rating, Galium (galium; [17]): 100; Plant response rating, Ragweed (ragweed [2]; [17]): 10; Kochia plant response rating (kochia [3]; 500 g ai/ha): 100; Plant response rating, Blackgrass (blackgrass; [17]): 70; Foxtail, Giant plant response rating (giant foxtail [4]; 500 g ai/ha): 100; Plant response rating, Barnyardgrass (barnyardgrass [5]; [17]): 60; Ryegrass, Italian plant response rating (Italian ryegrass [6]; 500 g ai/ha): 50; Pigweed plant response rating (pigweed [8]; 500 g ai/ha): 100; Barnyardgrass plant response rating (barnyardgrass [9]; 500 g ai/ha): 90; Plant response rating, Pigweed (pigweed [10]; [17]): 100; Plant response rating, Wheat (wheat; [17]): 0; Plant response rating, Foxtail, Giant (giant foxtail [11]; [17]): 80; Ragweed plant response rating (ragweed [12]; 500 g ai/ha): 100; Plant response rating, Corn (corn; [17]): 30; Plant response rating, Ryegrass, Italian (Italian ryegrass [13]; [17]): 40
